The text below walks through data of PMC8596843, “Platinum Cyclooctadiene Complexes with Activity against Gram‐positive Bacteria” (Chemmedchem, 2021).

Data set [1] has as its system human red blood cells. The experiment in a line: Haemolysis assay. In kind it is cell-based. Particulars: for Haemolysis HC10: concentration inducing 10 % haemolysis. Here is the method: As part of the CO‐ADD screening, all compounds that show any activity against a microbial strain are evaluated for their cytotoxicity against human embryonic kidney cells (HEK‐293) and for haemolysis against human red blood cells. None of the compounds tested for cytotoxicity (Pt1‐9 and Pd1) caused any significant cell death up to concentrations of 100 μM. […] We have also observed higher IC50 values for the methylated complexes Pt3 and Pt4 against HeLa cells in previous work.[16]
(§1) The resultant mid-log phase cultures were diluted
(§2) Gram-negative and Gram-positive bacteria, respectively.
(§3) final concentration range of 0.8 – 100 µM.
(§4) inhibitors as positive control.
(§5) Tamoxifen (Sigma T5648) was used
(§6) as internal control on each plate.
in a Neubauer haemocytometer.
incubated for 1 h at 37 °C, without shaking.
HC10 and HC50 (concentration at which 10%
for top, bottom and slope using Prism 8. […]

Data set [2] has as its system B. subtilis ATCC 6051 type strain. In words: MIC in the presence of human serum (serum reversal). In kind it is cell-based, Bacillus subtilis. Particulars: 10% serum.
From the text: (§7) To obtain some initial insight into the apparent disparity between in vitro and in vivo results, we repeated the MIC experiments against four selected Gram‐positive strains in the presence of 10 % or 50 % human serum (Table S3). Pt1 and Pt2 maintained some antibacterial activity against B. subtilis in the presence of 10 % serum, but a complete loss of activity was observed against MRSA and GISA (50 % serum), and VRE (10 % serum). […] Systemic administration is therefore unlikely to be a suitable administration route for this class of compounds unless an alternative formulation that can prevent serum binding (e. g. by lipid or nanoparticle encapsulation) can be found. […] Further in vivo studies should therefore focus on more suitable disease models. […]
(§8) Antibacterial minimum inhibitory concentration (MIC) assay
(§9) concentration. (in-house screening)
(§10) Bacto Laboratories 212322) at 37 °C overnight.
as §1, §2, §3
(§11) inhibitors as positive control. […]

In data set [3] the test system is Staphylococcus epidermidis ATCC 14990, type strain. In words: Antibacterial MIC assay, Gram-positive panel. The data set is classed as cell-based. Particulars: Table S1 panel; n=4. On the procedure: (§12) Smiles: C1C=CCCC(=CC1)C1=CCCC=CCC1.C[Pt]C.C[Pt]C […]
(§13) ATCC strains were sourced from the American Type Culture Collection and NRS strains from NARSA (Network on Antimicrobial Resistance in Staphylococcus aureus) via BEI Resources (www.beiresources.org), with clinical MSSA and MRSA isolates from Prof Graeme Nimmo, Queensland […]
(§14) Health Central Pathology. […]
as §8
(§15) Compound Assay Plate Preparation: Compounds were dissolved in DMSO at 10mM (CO-ADD screening) or 4 mM (follow up screening) and were plated in a 2-fold dose response from 20 to 0.156 µM or 200 to 0.006 µM respectively, with a maximum of 0.5% or 1% DMSO, final in the assay […]
(§16) plated in a 2-fold dose response from 200 to 0.006 µM, with a maximum of 1 % DMSO, final in the assay concentration. (in-house screening)
(§17) For all the bacterial assays, each strain was cultured in Cation-adjusted Mueller Hinton broth (CAMHB; Bacto Laboratories 212322) at 37 °C overnight. A sample of each culture was then diluted 40-fold in fresh CAMHB and incubated at 37 °C for 1.5–3 h. The resultant mid-log phase cultures were diluted with CAMHB (CFU mL−1 measured by OD600), then added to each well of the compound-containing plates (384-well non-binding surface (NBS) plates; Corning CLS3640), giving a cell density of 5 × 10^5 CFU mL−1 and a total volume of 50 μL. Plates were covered and incubated at 37 °C for 18 h without shaking. Inhibition of bacterial growth was determined measuring absorbance at 600 nm (OD600), using media only as negative control and bacteria without inhibitors as positive control. MIC values were determined as the lowest concentration at which the growth was inhibited at ≥80%. Colistin sulfate (Sigma C4461) and vancomycin HCl (Sigma 861987) were used as internal controls on each plate for Gram-negative and Gram-positive bacteria, respectively. […]

Data set [4] relates to Enterococcus faecalis Clinical Isolate, VRE (VanB). The experiment in a line: Antibacterial MIC assay, Gram-positive panel. The data set is classed as cell-based. Particulars: Table S1 panel; n=4. On the procedure: as §12, §13, §14, §8, §15, §16, §17
Data set [5] concerns Enterococcus faecium ATCC 51559, MDR, VRE (VanA). The experiment in a line: Antibacterial MIC assay, Gram-positive panel. In kind it is cell-based. Particulars: Table S1 panel; n=2. Here is the method: as §12, §13, §14, §8, §15, §16, §17
Data set [6] concerns Bacillus subtilis ATCC 6051, type strain. In words: Antibacterial MIC assay, Gram-positive panel. In kind it is cell-based. Particulars: Table S1 panel; n=2. On the procedure:
as §12, §13, §14, §8, §15, §16, §17

For data set [7], the system named is Enterococcus faecium Clinical Isolate, VRE (VanA). The experiment in a line: Antibacterial MIC assay, Gram-positive panel. Particulars: Table S1 panel; n=4. The data set is classed as cell-based. On the procedure: as §12, §13, §14, §8, §15, §16, §17
Data set [8] relates to Enterococcus faecalis ATCC 29212, control strain. In words: Antibacterial MIC assay, Gram-positive panel. In kind it is cell-based. Particulars: Table S1 panel; n=4. Here is the method: as §12, §13, §14, §8, §15, §16, §17
Data set [9] has as its system Enterococcus faecium ATCC 35667, type strain. The experiment in a line: Antibacterial MIC assay, Gram-positive panel. The data set is classed as cell-based. Particulars: Table S1 panel; n=4. Here is the method:
as §12, §13, §14, §8, §15, §16, §17

Data set [10] has as its system HEK-293 ATCC CRL-1573 human embryonic kidney cells. The data set is classed as cell-based. Here is the method: As part of the CO‐ADD screening, all compounds that show any activity against a microbial strain are evaluated for their cytotoxicity against human embryonic kidney cells (HEK‐293) and for haemolysis against human red blood cells. None of the compounds tested for cytotoxicity (Pt1‐9 and Pd1) caused any significant cell death up to concentrations of 100 μM. […] We have also observed higher IC50 values for the methylated complexes Pt3 and Pt4 against HeLa cells in previous work.[16] […]
as §4, §5, §6
in a Neubauer haemocytometer. […]

In data set [11] the test system is Staphylococcus aureus VRS 1, VRSA (VanA). In words: Antibacterial MIC assay, Gram-positive panel. In kind it is cell-based. Particulars: Table S1 panel; n=4.
From the text: (§18) Bis(dimethyl-η4)-((1Z,1'E,5Z,5'E)-(1,1'-bi(cyclooctadiene))diplatinum(II) (Pt14) Smiles: C1C=CCCC(=CC1)C1=CCCC=CCC1.C[Pt]C.C[Pt]C
(§19) InChIKey: PHIWIZAHOBWKFJ-HPCBIOCFSA-N
(§20) Link to selected data that was repeated to approve the identity of the compounds: https://dx.doi.org/10.14272/PHIWIZAHOBWKFJ-HPCBIOCFSA-N.1
as §13, §14, §8, §15, §16, §17

Data set [12] concerns Staphylococcus aureus ATCC 25923, MSSA. In words: Antibacterial MIC assay, Gram-positive panel. In kind it is cell-based. Particulars: Table S1 panel; n=4.
From the text: as §18, §19, §20, §13, §14, §8, §15, §16, §17

For data set [13], the system named is E. faecium ATCC 51559 MDR, VRE. The experiment in a line: MIC in the presence of human serum (serum reversal). In kind it is cell-based, Enterococcus faecium. Particulars: 10% serum.
From the text: as §7, §8, §9, §10, §1, §2, §3, §11

For data set [14], the system named is S. aureus NRS 17 GISA. Described as above. Particulars: 50% serum. The data set is classed as cell-based, Staphylococcus aureus.
From the text: as §7, §8, §9, §10, §1, §2, §3, §11

The subject of data set [15] is S. aureus ATCC 43300 MRSA. The data set is described as above. In kind it is cell-based, Staphylococcus aureus. Particulars: 50% serum.
From the text: as §7, §8, §9, §10, §1, §2, §3, §11

Data set [16] concerns E. coli lpxC (non‐efficient lipid A production mutant). In words: MIC against E. coli membrane mutants. Particulars: Table S2. The data set is classed as cell-based, Escherichia coli. On the procedure: as §8, §9, §10, §1, §2, §3, §11

SMILES strings stand for the structures.

For `CC[C@H](C)[C@H](NC(=O)CN)C(=O)NCC(=O)N[C@@H](C)C(=O)N[C@H](C(=O)N[C@@H](CC(C)C)C(=O)N[C@@H](CCCCN)C(=O)N[C@H](C(=O)N[C@@H](CC(C)C)C(=O)N[C@H](C(=O)N[C@H](C(=O)NCC(=O)N[C@@H](CC(C)C)C(=O)N1CCC[C@H]1C(=O)N[C@@H](C)C(=O)N[C@@H](CC(C)C)C(=O)N[C@H](C(=O)N[C@@H](CO)C(=O)N[C@@H](Cc1c[nH]c2ccccc12)C(=O)N[C@H](C(=O)N[C@@H](CCCCN)C(=O)N[C@@H](CCCNC(=N)N)C(=O)N[C@@H](CCCCN)C(=O)N[C@@H](CCCNC(=N)N)C(=O)N[C@@H](CCC(N)=O)C(=O)N[C@@H](CCC(N)=O)C(N)=O)[C@@H](C)CC)[C@@H](C)CC)[C@@H](C)O)[C@@H](C)O)C(C)C)C(C)C` [Melittin, reference compound], in data set [1], the “Haemolysis HC10” value came to 1.15 µM.
For `C1=C\CC/C=C\CC/1.[Cl][Pd][Cl]` [Pd1], the MIC in the presence of human serum in data set [2], in [13], in [14] and in data set [15] was over 200 µM in each case. Further, the MIC in data set [3] is 100 µM; in data set [4] it was over 200 µM; in data set [5] it was 200 µM; in data set [6], over 200 µM; in data set [7], over 200 µM; in data set [8] it was over 200 µM. The MIC in data set [9] was over 200 µM; in [11], over 200 µM; in data set [12] it was 200 µM. For the same molecule, the CC50 in [10] is over 100 µM. Also, the “Haemolysis HC10” value in data set [1] turned out to be 7.76 µM. For the same molecule, the “Haemolysis HC50” value in data set [1] (concentration inducing 50 % haemolysis) was 10.14 µM. Moreover, the MIC E. coli lpxC in data set [16] is over 200 µM.

In general, MIC refers to the lowest concentration that inhibits growth of the organism. A high value points to a need for much substance. In general, CC50 refers to the concentration at which the toxic effect on the cells reaches its halfway point. Lower therefore signals greater toxicity to the cells.
